The values that follow come from ChEMBL document CHEMBL5579895, “Discovery of TYRA-300: First Oral Selective FGFR3 Inhibitor for the Treatment of Urothelial Cancers and Achondroplasia” (J Med Chem, 2024).

Series [1] is described as follows: Inhibition of recombinant FGFR3/BAIAP2L1 (unknown origin) transduced in mouse BaF3 cells incubated for 48 hrs by Cell Titer Glo assay. The settings on record: BaF3, 48 h. The series is classed as cell-based. For orientation: ATP-based viability assays read luminescence as a measure of living cells.
Series [2] can be described thus: Inhibition of recombinant BCR/FGFR1 (unknown origin) transduced in mouse BaF3 cells incubated for 48 hrs by Cell Titer Glo assay. As to conditions: BaF3, 48 h. The class given is cell-based.
A short description of series [3]: Inhibition of recombinant BCR/FGFR2 (unknown origin) transduced in mouse BaF3 cells incubated for 48 hrs by Cell Titer Glo assay. As to conditions: BaF3, 48 h. The series is classed as cell-based.
Series [4] can be described thus: Inhibition of recombinant BCR/FGFR4 (unknown origin) transduced in mouse BaF3 cells incubated for 48 hrs by Cell Titer Glo assay. The settings on record: BaF3, 48 h. The class given is cell-based.
Series [5] can be described thus: Stability in human liver microsomes assessed as half life at 1 uM incubated upto 180 mins by LC-MS/MS analysis. The series is classed as ADME, Microsome. On the technique in general: Microsomes from liver hold many membrane-bound enzymes, among them those of drug oxidation.
Series [6] is described as follows: Stability in human hepatocytes assessed as half life at 1 uM incubated upto 180 mins by LC-MS/MS analysis. The series is classed as ADME, cell-based, Hepatocyte.
Series [7] deals with RT112/84. Description: cells. The series is classed as functional, cell-based. As to conditions: Homo sapiens.
Description: Inhibition of cell viability in human RT112/84 cells harboring FGFR3/TACC3 fusion incubated for 72 to 120 hrs by Cell Titer Glo assay
Series [8] deals with RT112/84. Description: cells. The class given is functional, cell-based. The settings on record: Homo sapiens. The source holds these as a separate data set.
Description: Inhibition of cell viability in human RT112/84 cells harboring FGFR3 V555M mutant incubated for 72 to 120 hrs by Cell Titer Glo assay
The nature of series [9]: Inhibition of cell viability in human UMUC14 cells harboring FGFR3 S249C mutant incubated for 72 to 120 hrs by Cell Titer Glo assay. The class given is functional, cell-based.
A further series relates to KG-1. Description: Inhibition of cell viability in human KG-1 cells harboring FGFR1-fusion incubated for 72 to 120 hrs by Cell Titer Glo assay. The class given is functional, cell-based.
In series [10] the test system is RT112/84. Description: Antitumor activity against human RT112/84 cells harboring FGFR3/TACC3 fusion xenografted in Balb/c nude mouse model at 15 mg/kg, po bid treated for 21 days relative to control. The series is classed as functional.

The source made the active and inactive calls. Some results are limits rather than exact numbers.

What is called IC50 is the point on the concentration scale where inhibition reaches its midpoint. A word on the half-life: it is the time needed for the level to fall by half in the phase considered. In the case of `C[C@@H](Oc1ccc2[nH]nc(-c3ccc(N4CCN(S(C)(=O)=O)CC4)nc3)c2c1)c1c(Cl)cncc1Cl`, the IC50 in series [1] was determined as 5.8 nM; in series [2], 150 nM; in series [3], 104 nM; in series [4] it was 156 nM. For the same compound, in series [5], the half-life at 1 µM was 9.6 min.

`C[C@@H](Oc1ccc2[nH]nc(-c3ccc(N4CCN(S(C)(=O)=O)CC4=O)nc3)c2c1)c1c(Cl)cncc1Cl`: the IC50 is 48 nM in [1], 653 nM in series [2], 407 nM in series [3] and 412 nM in series [4]. The half-life at 1 µM in series [5] turned out to be 3.3 min.

Take `C[C@@H](Oc1ccc2[nH]nc(-c3ccc(N4CC5(CCN(S(C)(=O)=O)CC5)C4)nc3)c2c1)c1c(Cl)cncc1Cl`: the IC50 was found to be 14 nM in [1]; 212 nM in series [2]; 127 nM in series [3]; 147 nM in series [4]; 15 nM in the series with RT112/84 [7]; 42 nM with RT112/84 [8]. In addition, the IC50 was 15 nM in series [9] and 1570 nM in the series on KG-1. The half-life at 1 µM in series [6] is over 100 min. For the same compound, the inhibition in vivo at 15 mg/kg in the series with RT112/84 [10] (RT112/84, 504 h, time 21 day, read-out: TGI) was 64%.

Take `C[C@@H](Oc1ccc2[nH]nc(-c3ccc(N4CCN(C(=O)N5CCN(C)CC5)CC4)nc3)c2c1)c1c(Cl)cncc1Cl`: the IC50 in series [1] turned out to be 6.5 nM; in series [2] it was 113 nM; in series [3], 114 nM; in series [4] it was 148 nM. Besides, in [5], the half-life at 1 µM stood at 3.5 min.

On to `C[C@@H](Oc1ccc2[nH]nc(-c3ccc(N4CC5(C4)CN(S(C)(=O)=O)C5)nn3)c2c1)c1c(Cl)cncc1Cl`, for which the IC50 in series [1] stood at 8.7 nM; in series [2], 204 nM; in series [3], 224 nM; in series [4], 278 nM; in the series on RT112/84 [7] it was 27 nM; in [9] it was 34 nM. For the same compound, half-maximal inhibition in the series on KG-1 (IC50) was put at 238 nM. Besides, in series [6], the half-life at 1 µM was over 100 min.

With `CCC(=O)N1CCN(c2ccc(-c3n[nH]c4ccc(O[C@H](C)c5c(Cl)cncc5Cl)cc34)cn2)CC1`, the figures for the IC50 in series [1] and in series [2] were 6 nM and 112 nM, respectively. For the same compound, the half-life at 1 µM in series [5] is 4.7 min.

On to `C[C@@H](Oc1ccc2[nH]nc(-c3ccc(N4CCN(C)CC4)nc3)c2c1)c1c(Cl)cncc1Cl`, for which the IC50 turned out to be 3.6 nM in series [1], 46 nM in [2], 28 nM in [3] and 27 nM in series [4]. Besides, in series [5], the half-life at 1 µM was 5 min.

As for `C[C@@H](Oc1ccc2[nH]nc(-c3cnc(N4CC5(C4)CN(S(C)(=O)=O)C5)nc3)c2c1)c1c(Cl)cncc1Cl`, the IC50 was found to be 30 nM in [1], 880 nM in [2], 487 nM in [3] and 128 nM in series [4]. The half-life at 1 µM in series [6] stood at 132 min. The outcome in the series with RT112/84 [10] (time 21.0 day) was inactive.

For `C[C@@H](Oc1ccc2[nH]nc(-c3ccc(N4CCOCC4)nc3)c2c1)c1c(Cl)cncc1Cl`, the half-maximal inhibitory concentration (IC50) in series [1] turned out to be 36 nM; in series [2] it was 514 nM; in series [3], 313 nM; in series [4], 1230 nM. Also, in series [5], the half-life at 1 µM is 5.5 min.

On to `C[C@@H](Oc1ccc2[nH]nc(-c3ccc(N4CCN(C(=O)N(C)C)CC4)nc3)c2c1)c1c(Cl)cncc1Cl`, for which the IC50 was 13 nM in series [1], 290 nM in series [2], 249 nM in series [3] and 307 nM in series [4]. Moreover, the half-life at 1 µM in series [5] is 1.1 min.

For `COC(=O)N1CCN(c2ccc(-c3n[nH]c4ccc(O[C@H](C)c5c(Cl)cncc5Cl)cc34)cn2)CC1`, the IC50 in series [1] worked out at 38 nM; in series [2], 556 nM; in [3], 387 nM; in series [4], 591 nM. Moreover, the half-life at 1 µM in series [5] is 8.5 min.
